Data taken from patent publication US9409870B2, “Compounds” (CHIESI FARMACEUTICI S.p.A., priority 2014, dated 2016).
Where a name gives a salt, the structure may show the parent alone.

target: T1, human neutrophil elastase (HNE) (Homo sapiens, UniProt P08246); assay: HNE enzyme activity assay (fluorogenic peptide substrate MeOSuc-Ala-Ala-Pro-Val-AMC); assay type: biochemical; conditions: human leukocyte elastase 0.00072 U/mL, substrate 100 μM, 25° C., 30 minutes, pH 7.5; at least two separate experiments; read-out: FINE inhibition (HNE enzyme inhibition, IC50 values)
T1 construct: purchased Sigma E8140
T1 sequence (P08246 30-247 limits assumed): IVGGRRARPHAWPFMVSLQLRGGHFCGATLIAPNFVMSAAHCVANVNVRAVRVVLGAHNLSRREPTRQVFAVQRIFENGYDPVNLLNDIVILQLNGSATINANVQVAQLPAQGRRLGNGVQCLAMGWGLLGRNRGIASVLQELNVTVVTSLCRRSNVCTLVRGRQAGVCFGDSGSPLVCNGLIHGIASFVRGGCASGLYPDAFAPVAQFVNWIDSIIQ
Method: Compounds of this invention were tested for potency in a human neutrophil elastase (HNE) enzyme activity assay.
Assays were performed in 96-well plates in a total assay volume of 100 μL. The final concentration of elastase enzyme (human leukocyte elastase, Sigma E8140) was 0.00072 U/mL. The peptide substrate (MeOSuc-Ala-Ala-Pro-Val-AMC, Calbiochem #324740) was used at a final concentration of 100 μM. The final concentration of DMSO was 1% in the assay buffer (0.05M Tris.HCl, 0.1M NaCl, 0.1M CaCl2, 0.0005% brij-35, pH 7.5). The enzymatic reaction was started by addition of the enzyme and incubated at 25° C. for 30 minutes. After incubation, the reaction was stopped by addition of soybean trypsin inhibitor (Sigma T9003) at a final concentration of 50 μg/well. Fluorescence was measured using a Molecular Devices fluorescence plate reader using 380 nm excitation and 460 nm emission wavelengths.
A dose response to each compound was performed and the effect of compound in each experiment was expressed as a percentage inhibition of the control enzyme fluorescence. Dose response curves were plotted and compound potency (IC50) was determined. Compounds were tested in at least two separate experiments.

Row | Structure (SMILES) | IC50 [nM]
1 | Cc1c(-c2ccnn2-c2ccc(C#N)cc2)n(C(=O)NCCC[N+](C)(C)C)c(=O)n1-c1cccc(C(F)(F)F)c1 [Example 24, Benzenesulfonate 3-[({5-[1-(4-cyanophenyl)-1H-pyrazol-5-yl]-4-methyl-2-oxo-3-[3-(trifluoromethyl)phenyl]-2,3-dihydro-1H-imidazol-1-yl}carbonyl)amino]-N,N,N-trimethylpropan-1-aminium] | 1 to 10
2 | Cc1c(-c2ccnn2-c2ccc(C#N)cc2)n(C(=O)NCC[N+](C)(C)C)c(=O)n1-c1cccc(C(F)(F)F)c1 [Example 25, Benzenesulfonate 2-[({5-[1-(4-cyanophenyl)-1H-pyrazol-5-yl]-4-methyl-2-oxo-3-[3-(trifluoromethyl)phenyl]-2,3-dihydro-1H-imidazol-1-yl}carbonyl)amino]-N,N,N-trimethylethanaminium] | 1 to 10
3 | CCCCn1c(-c2ccnn2-c2ccc(C#N)cc2)c(C)n(-c2cccc(C(F)(F)F)c2)c1=O [Example 26, 4-(5-{3-Butyl-5-methyl-2-oxo-1-[3-(trifluoromethyl)phenyl]-2,3-dihydro-1H-imidazol-4-yl}-1H-pyrazol-1-yl)benzonitrile] | 1 to 10
4 | Cc1c(-c2ccnn2-c2ccc(C#N)cc2)n(S(C)(=O)=O)c(=O)n1-c1cccc(C(F)(F)F)c1 [Example 27, 4-(5-{5-Methyl-3-(methylsulfonyl)-2-oxo-1-[3-(trifluoromethyl)phenyl]-2,3-dihydro-1H-imidazol-4-yl}-1H-pyrazol-1-yl)benzonitrile] | < 1
5 | CCCC(C)n1c(-c2ccnn2-c2ccc(C#N)cc2)c(C)n(-c2cccc(C(F)(F)F)c2)c1=O (stereo not drawn) [Example 28, 4-{5-[5-Methyl-3-(1-methyl-butyl)-2-oxo-1-(3-trifluoromethyl-phenyl)-2,3-dihydro-1H-imidazol-4-yl]pyrazol-1-yl}-benzonitrile] | 1 to 10
6 | Cc1c(-c2ccnn2-c2ccc(C#N)cc2)n(CCN(C)C)c(=O)n1-c1cccc(C(F)(F)F)c1 [Example 29, 4-{5-[3-(2-Dimethylamino-ethyl)-5-methyl-2-oxo-1-(3-trifluoromethylphenyl)-2,3-dihydro-1H-imidazol-4-yl]-pyrazol-1-yl}-benzonitrile] | 1 to 10
7 | Cc1c(-c2ccnn2-c2ccc(C#N)cc2)n(CCCN(C)C)c(=O)n1-c1cccc(C(F)(F)F)c1 [Example 30, 4-{5-[3-(3-Dimethylamino-propyl)-5-methyl-2-oxo-1-(3-trifluoromethylphenyl)-2,3-dihydro-1H-imidazol-4-yl]-pyrazol-1-yl}-benzonitrile] | 1 to 10
8 | CCCS(=O)(=O)n1c(-c2ccnn2-c2ccc(C#N)cc2)c(C)n(-c2cccc(C(F)(F)F)c2)c1=O [Example 31, 4-{5-[5-Methyl-2-oxo-3-(propane-1-sulfonyl)-1-(3-trifluoromethyl-phenyl)-2,3-dihydro-1H-imidazol-4-yl]-pyrazol-1-yl}-benzonitrile] | 1 to 10
9 | Cc1c(-c2ccnn2-c2ccc(C#N)cc2)n(S(=O)(=O)C2CC2)c(=O)n1-c1cccc(C(F)(F)F)c1 [Example 32, 4-{5-[3-Cyclopropanesulfonyl-5-methyl-2-oxo-1-(3-trifluoromethyl-phenyl)-2,3-dihydro-1H-imidazol-4-yl]-pyrazol-1-yl}-benzonitrile] | < 1
10 | CCNS(=O)(=O)n1c(-c2ccnn2-c2ccc(C#N)cc2)c(C)n(-c2cccc(C(F)(F)F)c2)c1=O [Example 33, 5-[2-(4-Cyano-phenyl)-2H-pyrazol-3-yl]-4-methyl-2-oxo-3-(3-trifluoromethylphenyl)-2,3-dihydro-imidazole-1-sulfonic acid ethylamide] | 1 to 10
11 | Cc1c(-c2ccnn2-c2ccc(C#N)cc2)n(S(=O)(=O)NC2CCCC2)c(=O)n1-c1cccc(C(F)(F)F)c1 [Example 34, 5-[2-(4-Cyano-phenyl)-2H-pyrazol-3-yl]-4-methyl-2-oxo-3-(3-trifluoromethylphenyl)-2,3-dihydro-imidazole-1-sulfonic acid cyclopentylamide] | < 1
12 | Cc1c(-c2ccnn2-c2ccc(C#N)cc2)n(S(=O)(=O)NC2CC2)c(=O)n1-c1cccc(C(F)(F)F)c1 [Example 35, 5-[2-(4-Cyano-phenyl)-2H-pyrazol-3-yl]-4-methyl-2-oxo-3-(3-trifluoromethylphenyl)-2,3-dihydro-imidazole-1-sulfonic acid cyclopropylamide] | 1 to 10
13 | Cc1c(-c2ccnn2-c2ccc(C#N)cc2)n(CC(=O)N2CCCC2)c(=O)n1-c1cccc(C(F)(F)F)c1 [Example 36, 4-{5-[5-Methyl-2-oxo-3-(2-oxo-2-pyrrolidin-1-yl-ethyl)-1-(3-trifluoromethylphenyl)-2,3-dihydro-1H-imidazol-4-yl]-pyrazol-1-yl}-benzonitrile] | 1 to 10
14 | Cc1c(-c2ccnn2-c2ccc(C#N)cc2)n(CC(=O)N(C)C)c(=O)n1-c1cccc(C(F)(F)F)c1 [Example 37, 2-[5-[2-(4-Cyano-phenyl)-2H-pyrazol-3-yl]-4-methyl-2-oxo-3-(3-trifluoromethyl-phenyl)-2,3-dihydro-imidazol-1-yl]-N,N-dimethyl-acetamide] | 1 to 10

Second part, the compound after the results:

Row | IC50 [nM] | Structure (SMILES)
15 | 1 to 10 | Cc1c(-c2ccnn2-c2ccc(C#N)cc2)n(CC(=O)N2CCN(C)CC2)c(=O)n1-c1cccc(C(F)(F)F)c1 [Example 38, 4-{5-[5-Methyl-3-[2-(4-methyl-piperazin-1-yl)-2-oxo-ethyl]-2-oxo-1-(3-trifluoromethyl-phenyl)-2,3-dihydro-1H-imidazol-4-yl]-pyrazol-1-yl}-benzonitrile]
16 | 10 to 50 | Cc1c(-c2ccnn2-c2ccc(C#N)cc2)n(CC(=O)NCCCN(C)C)c(=O)n1-c1cccc(C(F)(F)F)c1 [Example 39, 2-[5-[2-(4-Cyano-phenyl)-2H-pyrazol-3-yl]-4-methyl-2-oxo-3-(3-trifluoromethyl-phenyl)-2,3-dihydro-imidazol-1-yl]-N-(3-dimethylaminopropyl)-acetamide formic acid salt]
17 | 1 to 10 | Cc1c(-c2ccnn2-c2ccc(C#N)cc2)n(CC(=O)N(C)C2CCC2)c(=O)n1-c1cccc(C(F)(F)F)c1 [Example 40, 2-[5-[2-(4-Cyano-phenyl)-2H-pyrazol-3-yl]-4-methyl-2-oxo-3-(3-trifluoromethyl-phenyl)-2,3-dihydro-imidazol-1-yl]-N-cyclobutyl-N-methyl-acetamide]
18 | < 1 | Cc1c(-c2ccnn2-c2ccc(C#N)cc2)n(C(=O)NC2CCC2)c(=O)n1-c1cccc(C(F)(F)F)c1 [Example 41, 5-[2-(4-Cyano-phenyl)-2H-pyrazol-3-yl]-4-methyl-2-oxo-3-(3-trifluoromethyl-phenyl)-2,3-dihydro-imidazole-1-carboxylic acid cyclobutylamide]
19 | < 1 | Cc1c(-c2ccnn2-c2ccc(C#N)cc2)n(C(=O)NC2CC2)c(=O)n1-c1cccc(C(F)(F)F)c1 [Example 42, 5-[2-(4-Cyano-phenyl)-2H-pyrazol-3-yl]-4-methyl-2-oxo-3-(3-trifluoromethyl-phenyl)-2,3-dihydro-imidazole-1-carboxylic acid cyclopropylamide]
20 | < 1 | CCS(=O)(=O)N1CCC(NC(=O)n2c(-c3ccnn3-c3ccc(C#N)cc3)c(C)n(-c3cccc(C(F)(F)F)c3)c2=O)CC1 [Example 43, 5-[2-(4-Cyano-phenyl)-2H-pyrazol-3-yl]-4-methyl-2-oxo-3-(3-trifluoromethyl-phenyl)-2,3-dihydro-imidazole-1-carboxylic acid (1-ethanesulfonyl-piperidin-4-yl)-amide]
21 | < 1 | Cc1c(-c2ccnn2-c2ccc(C#N)cc2)n(C(=O)NC2CCOCC2)c(=O)n1-c1cccc(C(F)(F)F)c1 [Example 44, 5-[2-(4-Cyano-phenyl)-2H-pyrazol-3-yl]-4-methyl-2-oxo-3-(3-trifluoromethyl-phenyl)-2,3-dihydro-imidazole-1-carboxylic acid (tetrahydro-pyran-4-yl)-amide]
22 | < 1 | Cc1c(-c2ccnn2-c2ccc(C#N)cc2)n(C(=O)NC2CCCC2)c(=O)n1-c1cccc(C(F)(F)F)c1 [Example 45, 5-[2-(4-Cyano-phenyl)-2H-pyrazol-3-yl]-4-methyl-2-oxo-3-(3-trifluoromethyl-phenyl)-2,3-dihydro-imidazole-1-carboxylic acid cyclopentylamide]
23 | < 1 | Cc1c(-c2ccnn2-c2ccc(C#N)cc2)n(C(=O)N[C@@H]2CCN(C)C2)c(=O)n1-c1cccc(C(F)(F)F)c1 [Example 46, 5-[2-(4-Cyano-phenyl)-2H-pyrazol-3-yl]-4-methyl-2-oxo-3-(3-trifluoromethyl-phenyl)-2,3-dihydro-imidazole-1-carboxylic acid ((R)-1-methyl-pyrrolidin-3-yl)-amide]
24 | < 1 | Cc1c(-c2ccnn2-c2ccc(C#N)cc2)n(C(=O)N[C@H]2CCN(C)C2)c(=O)n1-c1cccc(C(F)(F)F)c1 [Example 47, 5-[2-(4-Cyano-phenyl)-2H-pyrazol-3-yl]-4-methyl-2-oxo-3-(3-trifluoromethyl-phenyl)-2,3-dihydro-imidazole-1-carboxylic acid ((S)-1-methyl-pyrrolidin-3-yl)-amide]
